Laboratory results reported in patent publication US20260053958A1, “HALOGENATED SOMATOSTATIN ANALOGS WITH MULTIPLE SOMATOSTATIN RECEPTOR SUBTYPE SELECTIVITY” (GRAFTON THERAPEUTICS SÀRL, priority 2022, published 2026).
pEC50, pIC50: −log10 of the molar value. Numbered stars: 1 amine (or outer) side, 2 acyl side, 3 side chain; on linkers, the order of the positions; unused ones are H or OH. Bridge positions count the residues as written; N and C are the ends. Square brackets hold non-standard residues; d marks the D form. Peptide text beside a SMILES is read from it. ξ: configuration not given here. Tyr(3-Br) = N[C@@H](Cc1ccc(O)c(Br)c1)C(=O)O; Tyr(3-Cl) = N[C@@H](Cc1ccc(O)c(Cl)c1)C(=O)O; X2 = Nc1ccc(C[C@@H](N[*:1])C(=O)[*:2])cc1Br; X3 = Nc1ccc(C[C@@H](N[*:1])C(=O)[*:2])cc1Cl; X1 = Nc1ccc(C[C@@H](N[*:1])C(=O)[*:2])cc1F; Tyr(3-F) = N[C@@H](Cc1ccc(O)c(F)c1)C(=O)O; Thr(3ξ) = CC(O)[C@H](N)C(=O)O

Key:
SST2 [1] = target: T1, SST2 (Homo sapiens, UniProt P30874); assay: Radioligand binding competition assay against [125I]SS-14, SST2; design: expressed in transfected cells; host or cells: CHO-K1 (membrane extracts); conditions: CHO-K1 membrane extracts
T1 sequence (P30874 whole entry): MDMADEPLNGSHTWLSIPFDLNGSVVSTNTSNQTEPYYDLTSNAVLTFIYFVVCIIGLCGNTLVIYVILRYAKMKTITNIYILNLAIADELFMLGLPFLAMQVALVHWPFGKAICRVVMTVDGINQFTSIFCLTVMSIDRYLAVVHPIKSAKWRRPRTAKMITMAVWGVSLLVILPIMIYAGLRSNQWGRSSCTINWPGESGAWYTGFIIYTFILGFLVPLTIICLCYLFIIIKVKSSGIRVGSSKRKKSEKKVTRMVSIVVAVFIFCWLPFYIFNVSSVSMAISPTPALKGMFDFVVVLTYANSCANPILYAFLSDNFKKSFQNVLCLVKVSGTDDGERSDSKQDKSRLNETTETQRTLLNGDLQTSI
Protocol: (§1) Reference values thus obtained were compared to historical values obtained from the same receptor and used to validate the experimental session. […] For replicate determinations, the maximum variability tolerated in the test was ±20% around the average of replicates.
(§2) For the SST2 assay, membrane extracts from CHO-K1 cells (accession number NP_001041.1) were used. For the SST5 assay, membrane extracts from CHO-K1 cells (accession number NP_001044.1) were used.
(§3) Nonspecific binding was determined by co-incubation with 200-fold excess of the cold competitor […]. The samples were incubated at a final volume of 0.1 mL at a temperature and for a duration optimized for each receptor and then filtered over filter plates. Filters were washed six times with 0.5 mL of ice-cold washing buffer (optimized for each receptor) and 50 μL of Microscint™ 20 (Packard) were added in each well. The plates were incubated 15 minutes on an orbital shaker and then counted with a TopCount™ for 1 min/well.

NT-3 cells [2] = assay: Inhibition of insulin release from NT-3 cells (ELISA); type: cell-based, human; conditions: 5 days, in comparison to untreated NT-3 cells
Protocol: For the study, 24-well plates were coated with 1 mg/ml of human placenta-derived type IV collagen in 950 μL of PBS) and fully dried. NT3 cells were seeded at a density of 20,000 cells/well in complete culture medium (0.5 ml), including growth factors and incubated overnight at 37° C., with 5% CO2.
All drugs were administered at 5 nM and 10 nM and biological duplicates were studied. The treatment exposure period was 5 days. Untreated cell controls were also studied. After 5 days, the supernatants were collected and deposited into 1.5 ml test tubes that were then centrifuged at 13,400 rpm for 5 minutes to remove any cell residue. The samples were stored at −80° C. until the time of analysis.
Secreted insulin levels in the supernatant were studied using a Sandwich-ELISA method (Elabscience® Human Insulin ELISA Kit #E-EL-H2665) according to the manufacturer's instructions. A micro-ELISA plate was pre-coated with an antibody specific to human insulin. Samples or Standards were added to the micro-ELISA plate wells and combined with the specific antibody. Then a biotinylated detection antibody specific for human insulin and Avidin-Horseradish Peroxidase (HRP) conjugate were added successively to each micro plate well, incubated and then washed. Substrate solution was added to each well. Only those wells that contain human insulin, biotinylated detection antibody and Avidin-HRP conjugate appear blue in color. The enzyme-substrate reaction was terminated by the addition of stop solution. The optical density (OD) was measured spectrophotometrically at a wavelength of 450 nm±2 nm, and the concentration of human insulin was then derived from the standard curve.

SST2 [3] = target: T1, SST2; assay: cAMP HTRF assay; type: cell-based; design: expressed in transfected cells; host or cells: CHO-K1; conditions: CHO-K1 cells expressing SST2, forskolin, 30 min
Protocol: as §1
CHO-K1 cells (accession number NP_001041.1) expressing human recombinant receptor SST2 were grown prior to the test in media without antibiotic and were detached by gentle flushing with PBS-EDTA (5 mM EDTA).
In a 96-well plate, 12 μl of cells were mixed with 6 μl of the test compound at increasing concentrations and 6 μl of forskolin, then incubated for 30 min at room temperature. The final concentrations of test compound were 0.003 nM; 0.01 nM; 0.03 nM; 0.1 nM; 0.3 nM; 1 nM; 3 nM; 10 nM; 30 nM; and 100 nM. After addition of lysis buffer containing cAMP-d2 and anti-cAMP cryptate detection reagents, the plates were incubated for one hour at room temperature, and fluorescence ratios were measured using an HTRF kit according to the manufacturer specification. The results are shown below in Table 1 and in FIGS. 1A-1D.

SST5 = target: T2, SST5 (Homo sapiens, UniProt P35346); assay: Radioligand binding competition assay against [125I]SS-14, SST5; conditions: CHO-K1 membrane extracts
T2 construct: expressed in transfected cells; host or cells: CHO-K1 (membrane extracts)
T2 sequence (P35346 whole entry): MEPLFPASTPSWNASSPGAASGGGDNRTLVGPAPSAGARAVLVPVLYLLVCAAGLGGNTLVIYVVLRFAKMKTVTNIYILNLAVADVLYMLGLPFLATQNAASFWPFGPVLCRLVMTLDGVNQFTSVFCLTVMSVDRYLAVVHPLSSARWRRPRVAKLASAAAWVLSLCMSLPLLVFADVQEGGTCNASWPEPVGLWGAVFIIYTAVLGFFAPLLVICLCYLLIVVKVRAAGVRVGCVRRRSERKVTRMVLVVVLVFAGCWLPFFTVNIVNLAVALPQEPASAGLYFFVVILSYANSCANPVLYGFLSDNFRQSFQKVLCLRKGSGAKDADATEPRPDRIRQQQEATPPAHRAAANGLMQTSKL
Protocol: as §1, §2, §3

GH3 cells = assay: Inhibition of GH release from GH3 cells (ELISA); type: cell-based, rat; conditions: 72 hours, in comparison to untreated GH3 cells
Protocol: (§4) All compounds were studied at concentrations of 5 nM and 10 nM; untreated cell controls were also studied. A biological duplicate was reproduced for each concentration of each drug. The treatment exposure period was 72 h. At the 72 h time-point, cell supernatant was collected and deposited into 1.5 mL test tubes that were then centrifuged at 13,400 rpm for 5 minutes to remove any cell residues. The samples were stored at −80° C. until the time of analysis.
GH levels in the supernatant were quantified using a Sandwich ELISA assay (Millipore Rat/Mouse Growth Hormone ELISA kit #EZRMGH-45K) according to the manufacturer's instructions. This method involved the initial capture of supernatant rat GH to the wells of a microtiter plate coated by a pre-titered amount of anti-Growth Hormone polyclonal antibodies. Unbound GH was washed away and then a second biotinylated anti-GH polyclonal antibody was bound to the captured GH molecules. Unbound GH was again washed away and there followed a step of conjugation of horseradish peroxidase to the immobilized biotinylated antibodies. After a final wash step, immobilized antibody-enzyme conjugates were quantified using horseradish peroxidase activities in the presence of the substrate 3,3′,5,5′-tetramethylbenzidine. The enzyme activity was measured spectrophotometrically. Concentrations of rat GH were derived by interpolation from a reference curve generated in the same assay with reference standards of known concentrations of rat GH.

AtT-20 cells = assay: Inhibition of ACTH release from AtT-20 cells (ELISA); type: cell-based, mouse; conditions: 72 hours, in comparison to untreated AtT-20 cells
Protocol: AtT-20 cells were seeded in 24-well plates (20,000 cells/well) in complete culture medium and incubated overnight at standard incubator conditions (37° C., 5% CO2) to promote adhesion.
as §4
ACTH levels were quantified using a Sandwich-ELISA technique ((Abcam Mouse/Rat ACTH ELISA Kit #ab263880) according to the manufacturer's instructions. Samples and standards were added individually to the wells, followed by the antibody mix. After incubation, the wells were washed to remove unbound material, and development solution was added, which was catalysed, and the reaction was subsequently stopped. The signal was generated proportionally to the amount of bound analyte and the intensity was measured at 450 nm. Results are shown in Table 8 and in FIG. 4A-4E.

NT-3 cells [4] = assay: Inhibition of proliferation of NT-3 cells (WST-1 assay); type: cell-based, human; conditions: 5 nM, 5 days, in comparison to untreated NT-3 cells
From the text: The water-soluble tetrazolium-1 (WST-1) assay is a standard method for assessing cell viability and proliferation in vitro. The WST-1 assay method is based on the cleavage of tetrazolium salts in culture medium to the dye, formazan, by active mitochondrial enzymes. As viable cell numbers change, so too does the action of mitochondrial dehydrogenases and cleavage of tetrazolium salts. The formation of formazan in the cell medium can be assayed spectrophotometrically as a measure of the number of living cells in the sample well. The effect of various compounds on the cell viability or proliferation rates can be measured as compared with controls or Standards.
All compounds were studied at a dose of 5 nM, and appropriate untreated controls were included.
NT-3 cells were seeded in complete RPMI-1640 medium (100 μl) into a 96-well microplate (20.000 cells/well). This was incubated at 37° C. in 5% CO2 to allow cells to adhere. Cells were treated with the test compounds at a concentration of 5 nM for a period of 5 days without changing the medium and without adding fresh compounds. […] The absorbance of the formazan dye was measured at 450 nm and 690 nm using a microplate reader. […] Average absorbance values were calculated for each group at 450 and 690 nm wavelengths and corrected for blank values. […]

| SMILES | pIC50 (SST2 [1]; Table 2, first assay (Day 1)) | Fold Change in Measured Insulin (NT-3 cells [2]; 5 nM) | Fold Change in Measured Insulin (NT-3 cells [2]; 10 nM) | pEC50 (SST2 [3]) | pIC50 (SST5; Table 6, second assay (Day 2)) | Fold Change in Measured GH (GH3 cells; 5 nM) | Fold Change in Measured GH (GH3 cells; 10 nM) | pIC50 (SST2 [1]; Table 3, second assay (Day 2)) | Fold Change in Measured ACTH (AtT-20 cells; 5 nM) | Fold Change in Measured ACTH (AtT-20 cells; 10 nM) | Fold Change in Proliferation (NT-3 cells [4]) | pIC50 (SST5; Table 7, third assay (Day 3)) | pIC50 (SST2 [1]; Table 4, third assay (Day 3)) |
| --- | --- | --- | --- | --- | --- | --- | --- | --- | --- | --- | --- | --- | --- |
| CC(C)[C@@H]1NC(=O)[C@H](CCCCN)NC(=O)[C@@H](Cc2c[nH]c3ccccc23)NC(=O)[C@H](Cc2ccc(O)c(Cl)c2)NC(=O)[C@H](NC(=O)[C@H](N)Cc2ccc(N)c(I)c2)CSSC[C@H](C(=O)N[C@H](C(N)=O)C(C)O)NC1=O (single isomer, unassigned) [Compound 2, (4-amino-3-Cl)-D-Phe-c[Cys-(3-I)-Tyr-D-Trp-Lys-Val-Cys]-Thr-NH2] | 9.13 |  |  |  |  |  |  |  |  |  |  |  |  |
| CC(C)[C@@H]1NC(=O)[C@H](CCCCN)NC(=O)[C@@H](Cc2c[nH]c3ccccc23)NC(=O)[C@H](Cc2ccc(O)c(Cl)c2)NC(=O)[C@H](NC(=O)[C@H](N)Cc2ccc(N)c(Cl)c2)CSSC[C@H](C(=O)N[C@H](C(N)=O)C(C)O)NC1=O (stereo partly drawn) [Compound 3, (4-amino-3-Cl)-D-Phe-c[Cys-(3-Cl)-Tyr-D-Trp-Lys-Val-Cys]-Thr-NH2] (H-[X3][dC][Tyr(3-Cl)][dW]KV[dC][Thr(3ξ)]-NH2; disulfide 2-7) |  | 0.62 | 0.56 | 9.60 | 9.07 | 1.04 | 1.02 | 9.32 | 0.68 | 0.76 |  |  |  |
| CC(C)[C@@H]1NC(=O)[C@H](CCCCN)NC(=O)[C@@H](Cc2c[nH]c3ccccc23)NC(=O)[C@H](Cc2ccc(O)c(Cl)c2)NC(=O)[C@H](NC(=O)[C@H](N)Cc2ccc(N)c(I)c2)CSSC[C@H](C(=O)N[C@H](C(N)=O)C(C)O)NC1=O (single isomer, unassigned) [Compound 1, (4-amino-3-I)-D-Phe-c[Cys-(3-Cl)-Tyr-D-Trp-Lys-Val-Cys]-Thr-NH2] | 9.43 |  |  |  |  |  |  |  |  |  |  |  |  |
| CC(C)[C@@H]1NC(=O)[C@H](CCCCN)NC(=O)[C@@H](Cc2c[nH]c3ccccc23)NC(=O)[C@H](Cc2ccc(O)c(F)c2)NC(=O)[C@H](NC(=O)[C@H](N)Cc2ccc(N)c(F)c2)CSSC[C@H](C(=O)N[C@H](C(N)=O)C(C)O)NC1=O (stereo partly drawn) [Compound 4, (4-amino-3-F)-D-Phe-c[Cys-(3-F)-Tyr-D-Trp-Lys-Val-Cys]-Thr-NH2] (H-[X1][dC][Tyr(3-F)][dW]KV[dC][Thr(3ξ)]-NH2; disulfide 2-7) |  | 0.09 | 0.10 | 8.72 |  | 0.94 | 0.76 |  | 0.37 | 0.37 | 0.93 | 8.47 | 8.59 |
| CC(C)[C@@H]1NC(=O)[C@H](CCCCN)NC(=O)[C@@H](Cc2c[nH]c3ccccc23)NC(=O)[C@H](Cc2ccc(O)c(Br)c2)NC(=O)[C@@H](NC(=O)[C@H](N)Cc2ccc(N)c(Br)c2)CSSC[C@@H](C(=O)N[C@H](C(N)=O)[C@@H](C)O)NC1=O [Compound 5, (4-amino-3-Br)-D-Phe-c[Cys-(3-Br)-Tyr-D-Trp-Lys-Val-Cys]-Thr-NH2] (H-[X2]C[Tyr(3-Br)][dW]KVCT-NH2; disulfide 2-7) |  | 0.12 | 0.18 | 9.80 |  | 0.72 | 0.75 |  | 0.68 | 0.77 | 0.52 | 9.10 | 9.27 |
